The target of one data set is T1, hTRPC5 (Homo sapiens, UniProt Q9UL62).
T1 construct: expressed in transfected cells; host or cells: HEK-293
T1 sequence (Q9UL62 1-973): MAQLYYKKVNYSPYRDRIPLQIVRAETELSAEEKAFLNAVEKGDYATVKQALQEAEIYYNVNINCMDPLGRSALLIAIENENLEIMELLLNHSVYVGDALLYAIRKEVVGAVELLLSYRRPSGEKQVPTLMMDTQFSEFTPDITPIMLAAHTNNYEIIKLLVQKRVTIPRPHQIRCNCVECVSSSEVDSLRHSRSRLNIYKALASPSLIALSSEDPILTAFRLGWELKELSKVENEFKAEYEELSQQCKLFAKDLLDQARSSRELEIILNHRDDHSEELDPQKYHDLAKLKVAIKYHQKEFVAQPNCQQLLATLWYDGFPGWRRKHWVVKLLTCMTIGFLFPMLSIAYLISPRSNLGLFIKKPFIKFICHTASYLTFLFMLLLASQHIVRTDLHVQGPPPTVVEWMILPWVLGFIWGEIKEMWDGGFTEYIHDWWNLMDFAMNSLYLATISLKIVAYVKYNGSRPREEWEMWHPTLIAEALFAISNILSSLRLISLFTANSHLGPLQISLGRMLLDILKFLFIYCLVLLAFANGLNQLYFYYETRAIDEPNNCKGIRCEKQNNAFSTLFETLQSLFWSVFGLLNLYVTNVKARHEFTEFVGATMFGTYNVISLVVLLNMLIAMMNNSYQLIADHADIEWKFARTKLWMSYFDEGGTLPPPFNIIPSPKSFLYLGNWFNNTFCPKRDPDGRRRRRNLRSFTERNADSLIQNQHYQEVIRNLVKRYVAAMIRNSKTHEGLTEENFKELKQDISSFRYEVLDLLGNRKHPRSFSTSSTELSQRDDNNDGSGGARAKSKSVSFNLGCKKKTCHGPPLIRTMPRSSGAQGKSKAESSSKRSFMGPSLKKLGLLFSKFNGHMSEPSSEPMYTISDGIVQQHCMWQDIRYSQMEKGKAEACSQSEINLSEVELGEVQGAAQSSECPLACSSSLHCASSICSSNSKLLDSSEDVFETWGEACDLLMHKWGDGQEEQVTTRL
Put plainly: TRPC5 inhibitory activity assay (FLIPR calcium flux, Fluo-4, agonist Englerin A). Conditions: HEK-293 cells expressing hTRPC5; agonist Englerin A 0.3 nM. Format: cell-based. The protocol:
HEK-293 cells expressing hTRPC4 or hTRPC5 were seeded into polylysine (PDL)-coated, black-bottomed, transparent 96-well plates at 2 × 10^4 cells per well. After 8 h of culture, the culture medium was discarded and 60 µL of 4 µM Fluo-4/AM dye was added. The plates were incubated at 37°C for 60 min and then rinsed five times with calcium flux assay buffer. […] After recording for 60 seconds, solvent control, test compound and positive inhibitor were added, and the signal was collected for another 300 seconds. Then, the agonist Englerin A (EA) (MedChemExpress, Shanghai, China, final concentration of 0.3 nM) was added, and the fluorescence signal was collected for another 600 seconds. The fluorescence signal in the trajectory diagram was expressed as F/F0, wherein F was the fluorescence signal at different time points and F0 was the basic fluorescence signal, that is, the average of the fluorescence signals at the first 10 time points. The dose-effect curve is first established with F/F0 = 1 as the baseline. The area under the curve of the fluorescence intensity change after the addition of EA was calculated. The IC50 value was calculated using the log[Inhibitor] vs. response - Variable slope, combining the area under the curve and the log value of the compound concentration.

Data set [1] is described as follows: Liver microsome stability test (mouse). Conditions: for MF %: mouse liver microsomes, metabolic bioavailability; for half-life at 1 µM: mouse, liver microsomes, pH 7.4.
Description: (§1) 0.1M pH 7.4 Tris buffer was prepared and then this buffer was used to prepare a 100 mM MgCl2 solution and a 10 mM coenzyme factor NADPH solution. The test compound was first prepared as a stock solution in DMSO and then diluted to a working concentration with 0.1% (w/v) BSA-PBS solution as needed.
(§2) During the assay, the liver microsome in TRIS buffer (final concentration of 0.33 mg/mL microsome protein), MgCl2 solution (final concentration of 5 mM), test compound solution (final concentration of 1 µM), and NADPH solution (final concentration of 1 mM) were incubated at 37°C. The reaction was terminated by adding methanol at 0, 7, 17, 30, and 60 minutes. The residual concentration of the test compound was determined using LC/MS/MS.
(§3) Calculation of in vivo clearance: Cl = (Clint × Houston × LW)/(1000); [formula]
(§4) Calculation of hepatic clearance: Clhep = (HBF × fu × Cl)/(HBF + (fu×Cl)); [formula]
(§5) Calculation of Metabolic utilization rate: %MF = 100−(Clhep × 100)/(HBF). [formula]
(§6) ke: Slope of the linear regression line (absolute value of slope) when plotting semi-logarithmic graph. The semi-logarithmic plot was made with the semi-logarithm of the remaining percentage of substrate versus reaction time. P: Microsome protein concentration (mg/mL); Houston: Houston factor (45 mg microsome protein/g liver); LW: Liver weight (g); HBF: Hepatic blood flow (mL/min); fu: Unbound fraction (typically fu=1).
A short description of data set [2]: Liver microsome stability test (human). To be noted: for MF %: human liver microsomes, metabolic bioavailability; for half-life at 1 µM: human, liver microsomes, pH 7.4.
Description: as §1, §2, §3, §4, §5, §6
Data set [3] relates to DOCA-salt hypertensive nephropathy rats. Put plainly: DOCA-salt-induced hypertensive nephropathy rat model. It is filed as in vivo, SD rats. Conditions: oral treatment for 3 weeks, losartan 30 mg/kg once a day.
Excerpt: After one week of adaptive feeding, 40 healthy male SD rats (SPF grade, 6 weeks old, weighing 200 g) were randomly divided into cages and fed with normal water. Five rats were selected as the normal group. The other 35 rats were weighed and anesthetized with 6% (w/v) chloral hydrate (200 g/ml, Sinopharm Group Reagent Company) intraperitoneally. The dorsal surgical area was then trimmed and the rats were fixed in a prone position on a surgical board. After strict disinfection, a 2-cm incision was made on the left side of the spine, below the twelfth rib. The muscles were separated, the renal capsule was freed, and the left kidney was exposed. The renal artery and vein were ligated close to the renal hilum, and the left kidney was removed. After clearing congestion, the muscle layer and skin were sutured. After surgery (after waking up from anesthesia), the rats were given an intraperitoneal injection of penicillin sodium (80,000 units intraperitoneal injection, for 3 consecutive days, prepared with normal saline. If 400,000 units of powder were used with 2.5 mL of normal saline, and 0.5 mL was injected per mouse per day). Afterwards, the normal group was given a subcutaneous injection of vegetable oil (commonly corn oil) and fed with tap water; the DOCA-salt modeling group was given a subcutaneous injection of deoxycorticosterone acetate (DOCA, CAS: 56-47-3, Shanghai Aladdin Biochemical Technology) dissolved in vegetable oil once a week, 30 mg/kg each time, and 10 g/L NaCl and 2 g/L KCl were added to the drinking water. The model was established after 4 consecutive weeks of induction.
Four weeks after modeling, the DOCA-salt hypertensive nephropathy rats were divided into four groups according to UACR. The drug was dissolved in 2% (v/v) DMSO + 2% (w/v) Tween 80 + physiological saline system and administered by gavage. […] Normal group: 5 rats, raised normally. Each group had free access to food and water.
After the start of drug administration, rats were placed in metabolic cages to collect 24 hours urine per week. […] Three weeks after administration, serum was collected to check the concentrations of blood creatinine and urea nitrogen. Then, the rats were euthanized under anesthesia, and the renal tissues were obtained. The RNA levels of nephrin and podocin were detected by quantitative RT-PCR.
GraphPad Prism (Ver 6.0) was used for statistical analysis. All data were expressed as mean ± standard error (mean ± SEM). One-way ANOVA was used to analyze the data. Dunnett's multiple test was used to analyze the significance of the differences between the groups. When P < 0.05, the differences between the groups were statistically significant.
A short description of data set [4]: in vitro. To be noted: human, microsomes, pH 7.4.
Description: as §1, §2, §3, §4, §5, §6
The nature of data set [5]: in vitro. Conditions: mouse, microsomes, pH 7.4.
Description: as §1, §2, §3, §4, §5, §6
Data set [6] can be described thus: Drug tissue distribution after oral administration to mice. To be noted: for Drug concentration Brain / Drug concentration Colon / Drug concentration Heart / Drug concentration Kidney / Drug concentration Liver / Drug concentration Lung / Drug concentration Muscle / Drug concentration Plasma / Drug concentration Spleen: mice, 10 mg/kg oral. The protocol:
250 mg of CMC-Na was weighted accurately, dissolved in 50 mL of mili-Q water, and sonicated for 1 h to prepare a 0.5% (m/v) CMC-Na solution for later use. […] After vortexing to dissolve, 140 µL of Tween 80 was added and mixed by vortex. Then 6.72 mL of CMC-Na solution was added and sonicated for 30 min to obtain 7 mL of a 1.0 mg/mL solution for use.
Mice were able to eat and drink freely and randomly divided into groups, with 3 mice in each group, and each mouse was gavaged with a dosage volume of 10 mL/kg. Blood was collected from the orbital venous plexus 1 and 4 hours after administration. Approximately 500 µL of mouse blood was placed in an EDTA-K2 anticoagulant tube. At the same time points, the brain, heart, lung, liver, kidney, spleen, colon, and muscle tissues of the mice were collected. […] Mouse brain, heart, lung, liver, kidney, spleen, colon, and muscle tissues were ground into tissue homogenate using a grinder with physiological saline equal to 5 times the weight of the tissue. The homogenate was centrifuged at 3,000 rpm for 10 min, and the supernatant was stored at -80°C for later use.
198 µL of plasma sample was placed in a centrifuge tube, 2 µl of internal standard solution was added, then 400 µL of acetonitrile was added, mixed by vortex for 1 min, and centrifuged at 13,000 rpm for 6 min. All the supernatant was taken, evaporated at room temperature for two days, re-dissolved in 200 µL of acetonitrile solvent, filtered with a 0.22 µm filter membrane and then injected for testing. 198 µL of the tissue homogenate supernatant sample was placed in a centrifuge tube, 2 µl of internal standard solution was added, then 400 µL of acetonitrile was added, mixed by vortex for 1 min, and centrifuged at 13,000 rpm for 6 min. All the supernatant was taken, evaporated at room temperature for two days, re-dissolved in 200 µL of acetonitrile solvent, filtered with a 0.22 µm filter membrane and then injected for testing.
Chromatographic column: Ultimate XB-C18 3 µM 2.1*100 mm; flow rate: 0.3 mL/min; column temperature: 30 °C; injection volume: 5 µL; mobile phase: A (pure water, containing 0.1% by volume formic acid), B (acetonitrile). The mass spectrometry ion source was an electrospray ionization (ESI) ionization source with a source temperature of 300°C.

Where [7] appears, read: E21 high dose (10 mg/kg morning and evening), Figure 4.
Setting [8] is: E21 medium dose (5 mg/kg morning and evening), Figure 3.

Take `[N-]=[N+]=NC(c1ccc(F)cc1C(F)(F)F)c1cnc2n1CCN(c1cn[nH]c(=O)c1Cl)C2` (stereo not shown) [Example E9, 5-(3-(azido(4-fluoro-2-(trifluoromethyl)phenyl)methyl)-5,6-dihydroimidazo[1,2-a]pyrazin-7(8H)-yl)-4-chloropyridazin-3(2H)-one]: on hTRPC5, the IC50 is 24.6 nM.

As to `CC(c1cc(F)ccc1Cl)c1cnc2n1CCN(c1cn[nH]c(=O)c1Cl)C2` (stereo not shown) [Example E29, 4-chloro-5-(3-(1-(2-chloro-5-fluorophenyl)ethyl)-5,6-dihydroimidazo[1,2-a]pyrazin-7(8H)-yl)pyridazin-3(2H)-one], in data set [1], the MF % amounted to 54.4% and the half-life at 1 µM was 56.4 min. In addition, in data set [2], the MF % is reported as 39.6% and the half-life at 1 µM stood at 70.2 min.

`O=C(c1ccc(F)cc1C(F)(F)F)c1nnc2n1CCN(c1cn[nH]c(=O)c1Cl)C2` [Example E41, 4-chloro-5-(3-(4-fluoro-2-(trifluoromethyl)benzoyl)-5,6-dihydro-[1,2,4]triazolo[4,3-a]pyrazin-7(8H)-yl)pyridazin-3(2H)-one]: the IC50 on hTRPC5 worked out at 146 nM.

As for `CCCCc1nc(Cl)c(CO)n1Cc1ccc(-c2ccccc2-c2nn[nH]n2)cc1` [losartan], in data set [3] (setting [7]), the “levels of nephrin (mRNA, kidney)” value is “effectively increase” and the “levels of podocin (mRNA, kidney)” value is listed as “effectively increase”. In addition, in data set [3] (setting [8]), the “serum creatinine (Scr)” value is “effectively reduce” and the “urea nitrogen (BUN)” value is “no effect”.

For `[N-]=[N+]=NC(c1cc(F)ccc1Cl)c1cnc2n1CCN(c1cn[nH]c(=O)c1Cl)C2` (stereo not shown) [Example E30, 5-(3-(azido(2-chloro-5-fluorophenyl)methyl)-5,6-dihydroimidazo[1,2-a]pyrazin-7(8H)-yl)-4-chloropyridazin-3(2H)-one], the IC50 on hTRPC5 worked out at 37.1 nM.

For the molecule `COC(c1cc(F)ccc1Cl)c1cnc2n1CCN(c1cn[nH]c(=O)c1Cl)C2` (stereo not shown) [Example E22, 4-chloro-5-(3-((2-chloro-5-fluorophenyl)(methoxy)methyl)-5,6-dihydroimidazo[1,2-a]pyrazin-7(8H)-yl)pyridazin-3(2H)-one], the half-maximal inhibitory concentration (IC50) on hTRPC5 turned out to be 60.1 nM.

Consider `CC(c1ccc(F)cc1Cl)c1cnc2n1CCN(c1cn[nH]c(=O)c1Cl)C2` (stereo not shown) [Example E28, 4-chloro-5-(3-(1-(2-chloro-4-fluorophenyl)ethyl)-5,6-dihydroimidazo[1,2-a]pyrazin-7(8H)-yl)pyridazin-3(2H)-one], for which the IC50 at hTRPC5 stood at 18.3 nM.

For the molecule `C=C(c1cc(F)ccc1Cl)c1cnc2n1CCN(c1cn[nH]c(=O)c1Cl)C2` [Example E27, 4-chloro-5-(3-(1-(2-chloro-5-fluorophenyl)vinyl)-5,6-dihydroimidazo[1,2-a]pyrazin-7(8H)-yl)pyridazin-3(2H)-one], the IC50 on hTRPC5 came out at 5.28 nM.

Consider `O=c1[nH]ncc(N2CCn3c(Cc4ccc(F)cc4C(F)(F)F)cnc3C2)c1Cl` [Example L002], for which the half-life at 1 µM in “in vitro [4]” came out at 65.8 min; in the data set “in vitro [5]”, 38.7 min. In addition, the IC50 on hTRPC5 was 10.4 nM.

Consider `COC(c1ccc(F)cc1Cl)c1cnc2n1CCN(c1cn[nH]c(=O)c1Cl)C2` (racemic) [Example E21, 4-chloro-5-(3-((2-chloro-4-fluorophenyl)(methoxy)methyl)-5,6-dihydroimidazo[1,2-a]pyrazin-7(8H)-yl)pyridazin-3(2H)-one], for which the “drug exposure and distribution in plasma, liver, and kidney” value in data set [6] (1 and 4 hours after oral administration to mice) is “good”. In data set [6] (1 h), the “Drug concentration Brain” value was determined as 52 ng/g, the “Drug concentration Colon” value is recorded as 824 ng/g, the “Drug concentration Heart” value stood at 191 ng/g and the “Drug concentration Kidney” value was 719 ng/g. Moreover, in data set [6] (1 h), the “Drug concentration Liver” value was determined as 565 ng/g, the “Drug concentration Lung” value was determined as 219 ng/g, the “Drug concentration Muscle” value stood at 153 ng/g and the “Drug concentration Plasma” value turned out to be 1147 ng/mL. In addition, the “Drug concentration Spleen” value in data set [6] (1 h) came to 531 ng/g. Also, in data set [6] (4 h), the “Drug concentration Brain” value came to 28 ng/g, the “Drug concentration Colon” value came to 133 ng/g, the “Drug concentration Heart” value worked out at 26 ng/g and the “Drug concentration Kidney” value is 97 ng/g. In addition, in data set [6] (4 h), the “Drug concentration Liver” value is on record as 205 ng/g, the “Drug concentration Lung” value stood at 39 ng/g, the “Drug concentration Muscle” value amounted to 52 ng/g and the “Drug concentration Plasma” value turned out to be 250 ng/mL. Further, the “Drug concentration Spleen” value in data set [6] (4 h) is listed as 60 ng/g.

On to `[2H]C([2H])([2H])OC(c1ccc(F)cc1C)c1cnc2n1CCN(c1cn[nH]c(=O)c1Cl)C2` (stereo not shown) [Example E24, 4-chloro-5-(3-((4-fluoro-2-methylphenyl)(methoxy-d3)methyl)-5,6-dihydroimidazo[1,2-a]pyrazin-7(8H)-yl)pyridazin-3(2H)-one], for which, in data set [1], the MF % is listed as 55.9% and the half-life at 1 µM came out at 59.8 min. In data set [2], this molecule yielded an MF % of 63.8% and a half-life at 1 µM of 189 min.

The record behind these values is patent EP4703361A1, “PYRIDAZINONE TRPC4/5 INHIBITOR AND USE THEREOF” (Shanghai Institute of Materia Medica, Chinese Academy of …, priority 2023, dated 2024).
